# Measurements published in US9394346B2, “Method for producing an amino acid using a bacterium overexpressing an rhtC gene” (priority 1998, dated 2016).
# Columns and labels:
# Type in all cases: cell-based, E. coli
# N99/pRhtC = assay: MIC of amino acids and analogues on M9 agar, strain N99/pRhtC; conditions: Escherichia coli; N99/pRhtC (multicopy rhtC); M9 agar (2%), about 10^4 viable cells, doubling increments
# Description: (§1) Therefore, the effect of the pRhtB and pRhtC plasmids on susceptibility of the strain N99 which is a streptomycin-resistant (Str^R) mutant of the known strain W3350 (VKPM B-1557) to some amino acids and amino acid analogues was tested. Overnight broth cultures (10^9 cfu/ml) of the strains N99/pUC21, N99pUK21, N99/pRhtB and N99/pRhtC were diluted 1:100 in M9 minimal medium and grown for 5 h in the same medium. Then the log phase cultures thus obtained were diluted and about 10^4 viable cells were applied to well-dried test plates with M9 agar (2%) containing doubling increments of amino acids or analogues. Thus the minimum inhibitory concentrations (MIC) of these compounds were examined.
# N99/pRhtB = assay: MIC of amino acids and analogues on M9 agar, strain N99/pRhtB; conditions: Escherichia coli
# Description: as §1
# N99/pUC21 = assay: MIC of amino acids and analogues on M9 agar, strain N99/pUC21; conditions: Escherichia coli; N99/pUC21 (vector control; same data with N99/pUK21); M9 agar (2%), about 10^4 viable cells, doubling increments
# Description: as §1
SMILES,MIC (N99/pRhtC) [mg/L],MIC (N99/pRhtB) [mg/L],MIC (N99/pUC21) [mg/L]
CN(C)CC(N)C(=O)O (racemic) [4-aza-DL-leucine],50,100,50
"NCCSC[C@H](N)C(=O)O [AEC, S-(2-aminoethyl)-L-cysteine]",5,20,5
"CCC(O)C(N)C(=O)O (stereo not drawn) [AHVA, α-amino-β-hydroxyvaleric-acid]",15000,2000,100
N[C@@H](Cc1c[nH]cn1)C(=O)O [L-histidine],40000,5000,5000
N[C@@H](CCO)C(=O)O [L-homoserine],1000,20000,1000
C[C@@H](O)[C@H](N)C(=O)O [L-threonine],80000,40000,30000
CC(C)[C@H](N)C(=O)O [L-valine],2,0.5,0.5
CO[C@H](C)[C@H](N)C(=O)O [O-methyl-L-threonine],20,20,20
